Blank lines part the entries; values can stand above or below the molecule they belong to.
Assays:
[1] = molecular target: Serine/threonine-protein kinase 38 (Homo sapiens) (UniProt Q15208); experiment: Selectivity interaction (KinomeScan (DiscoverX)) EUB0000607a STK38; details: at 10 µM
[2] = molecular target: MAP/microtubule affinity-regulating kinase 3 (Homo sapiens) (UniProt P27448); experiment: Selectivity interaction (ActivX KiNativ screen (kinase selectivity in THP-1 cell lysates)) EUB0000639a MARK3; assay type: subcellular; details: lysate, at 5 µM
Sequence of MAP/microtubule affinity-regulating kinase 3 (Homo sapiens) (P27448 whole entry, looked up): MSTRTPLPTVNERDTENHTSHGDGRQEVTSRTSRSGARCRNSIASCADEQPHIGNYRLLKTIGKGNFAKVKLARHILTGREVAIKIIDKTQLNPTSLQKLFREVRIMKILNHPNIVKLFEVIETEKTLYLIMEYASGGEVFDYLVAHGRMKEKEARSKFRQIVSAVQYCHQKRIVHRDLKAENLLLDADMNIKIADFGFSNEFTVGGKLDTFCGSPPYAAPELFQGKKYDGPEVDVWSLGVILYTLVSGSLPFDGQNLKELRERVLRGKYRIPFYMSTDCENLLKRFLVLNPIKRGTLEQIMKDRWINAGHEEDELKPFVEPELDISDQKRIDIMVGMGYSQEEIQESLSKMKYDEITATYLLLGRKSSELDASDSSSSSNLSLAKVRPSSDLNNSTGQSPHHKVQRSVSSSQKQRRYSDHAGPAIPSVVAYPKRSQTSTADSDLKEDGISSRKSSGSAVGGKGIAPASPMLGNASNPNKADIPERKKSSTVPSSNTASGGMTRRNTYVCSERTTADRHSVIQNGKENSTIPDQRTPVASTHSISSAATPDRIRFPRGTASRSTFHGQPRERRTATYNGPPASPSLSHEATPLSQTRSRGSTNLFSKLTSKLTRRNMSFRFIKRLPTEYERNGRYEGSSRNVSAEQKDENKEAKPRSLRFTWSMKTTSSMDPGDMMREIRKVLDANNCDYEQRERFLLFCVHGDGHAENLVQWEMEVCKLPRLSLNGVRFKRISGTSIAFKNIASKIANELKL

[3] = molecular target: Angiopoietin-1 receptor (Homo sapiens) (UniProt Q02763); experiment: (§1) Selectivity interaction (ProQinase) EUB0000171b TEK
Sequence of Angiopoietin-1 receptor (Homo sapiens) (Q02763 whole entry): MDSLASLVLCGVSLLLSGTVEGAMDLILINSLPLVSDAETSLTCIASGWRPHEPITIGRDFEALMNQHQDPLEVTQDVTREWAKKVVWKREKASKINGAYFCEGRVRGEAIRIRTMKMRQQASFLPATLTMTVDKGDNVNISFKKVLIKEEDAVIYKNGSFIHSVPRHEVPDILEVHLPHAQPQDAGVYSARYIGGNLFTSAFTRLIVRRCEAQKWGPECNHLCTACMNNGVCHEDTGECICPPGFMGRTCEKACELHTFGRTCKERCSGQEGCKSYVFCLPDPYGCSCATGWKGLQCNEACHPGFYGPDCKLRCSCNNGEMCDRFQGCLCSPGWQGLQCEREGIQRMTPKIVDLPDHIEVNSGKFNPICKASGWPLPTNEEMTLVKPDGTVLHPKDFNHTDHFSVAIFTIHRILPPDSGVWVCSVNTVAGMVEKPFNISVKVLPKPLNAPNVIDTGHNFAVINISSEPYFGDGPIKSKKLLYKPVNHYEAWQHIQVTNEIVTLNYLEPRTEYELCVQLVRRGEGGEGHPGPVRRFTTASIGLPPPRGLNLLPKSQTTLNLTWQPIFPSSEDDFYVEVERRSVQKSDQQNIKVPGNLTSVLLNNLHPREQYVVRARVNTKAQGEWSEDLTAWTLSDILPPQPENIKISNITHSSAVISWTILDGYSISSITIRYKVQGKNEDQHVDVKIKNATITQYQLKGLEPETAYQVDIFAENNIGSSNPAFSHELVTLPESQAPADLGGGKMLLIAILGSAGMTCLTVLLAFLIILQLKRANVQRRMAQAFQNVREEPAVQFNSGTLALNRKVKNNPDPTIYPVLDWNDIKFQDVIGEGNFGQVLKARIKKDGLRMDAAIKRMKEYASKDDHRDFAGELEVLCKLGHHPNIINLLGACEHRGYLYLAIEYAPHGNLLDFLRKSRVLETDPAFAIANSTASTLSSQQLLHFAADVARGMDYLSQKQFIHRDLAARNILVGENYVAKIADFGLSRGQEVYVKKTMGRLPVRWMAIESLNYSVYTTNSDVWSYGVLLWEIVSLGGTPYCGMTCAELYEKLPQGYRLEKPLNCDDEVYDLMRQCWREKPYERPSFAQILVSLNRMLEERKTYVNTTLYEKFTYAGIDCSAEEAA

[4] = tested on: Angiopoietin-1 receptor (Homo sapiens), Q02763 [R849W]; experiment: as §1
Sequence of Angiopoietin-1 receptor (Homo sapiens), Q02763 [R849W] (Q02763 whole entry R849W): as the sequence (Q02763 whole entry) above, with R849W counted along it

[5] = tested on: Angiopoietin-1 receptor (Homo sapiens), Q02763 [Y897S]; experiment: as §1
Sequence of Angiopoietin-1 receptor (Homo sapiens), Q02763 [Y897S] (Q02763 whole entry Y897S): as the sequence (Q02763 whole entry) above, with Y897S counted along it

[6] = molecular target: Cyclin-dependent kinase 14 (Homo sapiens) (UniProt O94921); experiment: Selectivity interaction (KinomeScan (DiscoverX)) EUB0001049a CDK14; details: at 1 µM
Sequence of Cyclin-dependent kinase 14 (Homo sapiens) (O94921 whole entry): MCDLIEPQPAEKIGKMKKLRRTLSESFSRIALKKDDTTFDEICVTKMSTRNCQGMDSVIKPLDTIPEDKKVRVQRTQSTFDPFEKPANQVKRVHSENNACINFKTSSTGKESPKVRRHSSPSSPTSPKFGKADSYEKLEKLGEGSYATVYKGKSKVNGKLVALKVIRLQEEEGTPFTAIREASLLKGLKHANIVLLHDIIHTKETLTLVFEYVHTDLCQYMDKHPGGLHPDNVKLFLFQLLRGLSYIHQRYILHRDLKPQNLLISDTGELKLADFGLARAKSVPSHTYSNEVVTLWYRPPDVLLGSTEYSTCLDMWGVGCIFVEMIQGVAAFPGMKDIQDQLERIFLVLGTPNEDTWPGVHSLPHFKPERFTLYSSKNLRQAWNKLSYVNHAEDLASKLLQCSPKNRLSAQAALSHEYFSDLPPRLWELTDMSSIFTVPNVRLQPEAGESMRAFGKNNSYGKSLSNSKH

[7] = molecular target: T1, Serine/threonine-protein kinase DCLK3 (Homo sapiens) (UniProt Q9C098); experiment: Selectivity interaction (KinomeScan (DiscoverX)) EUB0000045b DCLK3
T1 sequence (whole entry): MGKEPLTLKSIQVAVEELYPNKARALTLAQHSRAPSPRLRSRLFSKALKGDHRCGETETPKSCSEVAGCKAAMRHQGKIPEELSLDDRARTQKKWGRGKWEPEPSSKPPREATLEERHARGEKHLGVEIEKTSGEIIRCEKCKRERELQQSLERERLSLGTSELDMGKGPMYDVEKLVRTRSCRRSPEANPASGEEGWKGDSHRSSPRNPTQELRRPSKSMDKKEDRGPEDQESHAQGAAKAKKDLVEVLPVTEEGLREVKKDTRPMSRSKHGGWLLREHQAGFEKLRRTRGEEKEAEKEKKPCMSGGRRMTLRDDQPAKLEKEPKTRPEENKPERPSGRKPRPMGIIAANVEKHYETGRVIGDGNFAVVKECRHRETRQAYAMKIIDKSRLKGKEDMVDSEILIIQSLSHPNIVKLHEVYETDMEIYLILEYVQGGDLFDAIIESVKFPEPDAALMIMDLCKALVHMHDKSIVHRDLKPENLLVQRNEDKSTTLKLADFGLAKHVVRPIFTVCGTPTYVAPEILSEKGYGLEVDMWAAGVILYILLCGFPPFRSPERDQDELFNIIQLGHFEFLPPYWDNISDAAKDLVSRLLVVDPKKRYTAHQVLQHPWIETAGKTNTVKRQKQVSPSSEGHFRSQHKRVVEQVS

[8] = molecular target: T2, Peripheral plasma membrane protein CASK (Homo sapiens) (UniProt O14936); experiment: Selectivity interaction (KinomeScan (DiscoverX)) EUB0000229b CASK; details: at 10 µM
T2 sequence (whole entry): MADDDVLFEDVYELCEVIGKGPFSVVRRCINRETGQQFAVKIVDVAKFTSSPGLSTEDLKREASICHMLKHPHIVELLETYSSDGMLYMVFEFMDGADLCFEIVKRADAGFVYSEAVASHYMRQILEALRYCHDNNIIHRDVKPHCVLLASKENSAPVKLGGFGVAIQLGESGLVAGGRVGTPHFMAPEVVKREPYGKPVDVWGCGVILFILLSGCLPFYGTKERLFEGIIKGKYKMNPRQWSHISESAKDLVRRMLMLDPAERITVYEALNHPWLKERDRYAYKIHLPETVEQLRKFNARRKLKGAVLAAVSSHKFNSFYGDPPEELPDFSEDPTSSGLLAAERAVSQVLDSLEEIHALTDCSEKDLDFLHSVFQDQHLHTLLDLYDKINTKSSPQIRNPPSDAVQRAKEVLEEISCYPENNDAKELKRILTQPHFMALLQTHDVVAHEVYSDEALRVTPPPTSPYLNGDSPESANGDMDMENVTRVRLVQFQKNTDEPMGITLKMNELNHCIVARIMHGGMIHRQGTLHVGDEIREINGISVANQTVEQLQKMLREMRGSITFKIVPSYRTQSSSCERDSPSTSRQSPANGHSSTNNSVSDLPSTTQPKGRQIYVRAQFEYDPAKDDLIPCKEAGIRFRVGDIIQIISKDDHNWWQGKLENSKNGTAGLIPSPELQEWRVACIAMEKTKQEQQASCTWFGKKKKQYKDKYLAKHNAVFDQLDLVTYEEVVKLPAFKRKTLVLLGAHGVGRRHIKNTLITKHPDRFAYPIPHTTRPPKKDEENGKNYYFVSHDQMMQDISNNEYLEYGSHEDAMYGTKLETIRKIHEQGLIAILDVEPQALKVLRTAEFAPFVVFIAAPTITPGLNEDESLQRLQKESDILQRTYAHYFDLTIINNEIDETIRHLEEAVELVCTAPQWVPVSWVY

[9] = molecular target: Dual specificity testis-specific protein kinase 1 (Homo sapiens) (UniProt Q15569); experiment: Selectivity interaction (KinomeScan (DiscoverX)) EUB0000092b TESK1; details: at 10 µM
Sequence of Dual specificity testis-specific protein kinase 1 (Homo sapiens) (Q15569 whole entry, looked up): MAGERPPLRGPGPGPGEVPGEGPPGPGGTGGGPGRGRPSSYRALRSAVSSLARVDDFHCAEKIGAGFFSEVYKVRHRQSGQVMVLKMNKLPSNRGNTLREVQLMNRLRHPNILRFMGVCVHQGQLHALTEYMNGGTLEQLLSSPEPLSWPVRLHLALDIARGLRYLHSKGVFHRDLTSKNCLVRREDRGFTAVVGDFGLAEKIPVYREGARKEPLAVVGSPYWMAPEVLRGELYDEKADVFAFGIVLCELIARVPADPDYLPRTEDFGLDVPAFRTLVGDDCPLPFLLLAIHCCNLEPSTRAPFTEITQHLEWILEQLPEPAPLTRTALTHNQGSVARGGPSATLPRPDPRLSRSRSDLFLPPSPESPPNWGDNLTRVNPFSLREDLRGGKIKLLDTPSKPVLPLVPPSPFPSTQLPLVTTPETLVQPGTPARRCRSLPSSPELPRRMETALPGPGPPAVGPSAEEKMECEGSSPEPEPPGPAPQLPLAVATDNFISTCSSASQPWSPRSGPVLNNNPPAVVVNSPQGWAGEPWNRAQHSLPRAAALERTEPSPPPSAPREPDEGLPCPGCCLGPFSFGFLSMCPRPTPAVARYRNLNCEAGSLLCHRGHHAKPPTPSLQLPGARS

Sequence of Serine/threonine-protein kinase 38 (Homo sapiens) (Q15208 2-465 limits assumed): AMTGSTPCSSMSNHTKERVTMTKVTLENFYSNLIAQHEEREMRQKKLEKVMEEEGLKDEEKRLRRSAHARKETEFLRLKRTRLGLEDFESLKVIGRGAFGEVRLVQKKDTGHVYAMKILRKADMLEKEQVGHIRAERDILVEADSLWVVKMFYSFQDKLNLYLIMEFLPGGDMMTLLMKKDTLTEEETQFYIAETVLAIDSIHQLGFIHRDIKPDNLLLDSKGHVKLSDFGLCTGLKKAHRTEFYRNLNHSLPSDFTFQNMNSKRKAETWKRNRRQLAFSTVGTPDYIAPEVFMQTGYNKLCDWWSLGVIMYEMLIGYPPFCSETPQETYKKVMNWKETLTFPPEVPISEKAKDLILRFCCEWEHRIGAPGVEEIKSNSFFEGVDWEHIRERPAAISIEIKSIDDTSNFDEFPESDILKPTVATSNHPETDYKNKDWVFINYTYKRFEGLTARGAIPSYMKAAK

SMILES: CNC(=O)Nc1ccc(-c2nc(N3CC4CCC(C3)O4)c3cnn(C4CCC5(CC4)OCCO5)c3n2)cc1
% of control [1]: 100%

% of inhibition [2]: 45.6%
SMILES: CC[C@@H]1[C@H](F)C(=O)N[C@@H]1COc1nccc2cc(C(N)=O)c(OC)cc12 [ZIMLOVISERTIB]

% of control ([3]; at 1 µM): 85%
% of control ([3]; at 5 µM): 81%
% of control ([4]; at 1 µM): 92%
% of control ([4]; at 5 µM): 107%
% of control ([5]; at 1 µM): 85%
% of control ([5]; at 5 µM): 85%
SMILES: C=CC(=O)Nc1cccc(C(=O)Nc2ccc(Nc3cc(-c4[nH]c(SC)nc4C)ccn3)cc2)c1

SMILES: COc1cc(Nc2nc(C)cc(-c3cnn4nc(OC)ccc34)n2)cc(C(F)(F)F)c1
% of control [6]: 87%

SMILES: C=CC(=O)Nc1cc(-n2c(=O)ccc3cnc4ccc(-c5ccc(NS(C)(=O)=O)cc5)cc4c32)ccc1C
% of control ([7]; at 1 µM): 94%
% of control ([7]; at 10 µM): 78%

SMILES: COc1cc(N(C)c2ccnc3ccc(C(F)(F)F)cc23)cc(OC)c1OC
% binding [8]: 55%

SMILES: CCC(=O)N1CCN(c2ccc(-n3c(=O)ccc4cnc5ccc(-c6cnc7ccccc7c6)cc5c43)cc2C(F)(F)F)CC1
% of control [9]: 58%

Reference: ChEMBL document CHEMBL5465560, “Selectivity Literature for EUbOPEN Chemogenomic Library” (2024)
